Test results published in patent US20100065444A1, “PACK CONTAINING SOFT CAPSULES” (priority 2007, published 2010).

Columns and labels:
Type in all cases: physicochemical
[1] = Stability of multivitamin soft capsules in container with channel former and absorbent embedded in the inside walls, 30° C./65% RH
Protocol: (§1) Multivitamin soft capsules (active-compound composition and capsule shell as described below) are introduced into a resealable container in/on the inside wall(s) of which at least one channel former is embedded, at least over part of the area, together with at least one absorbent (type: M-3006-16 Activ-Vial) in the inside walls of which a molecular sieve having a capacity of 1.92 g is embedded.
(§2) The multivitamin soft capsules are stored at 30° C. and 65% relative humidity (RH), removed from storage after predetermined times, assessed visually with respect to their appearance and investigated analytically with respect to the amounts of active compound present.

[2] = Stability of multivitamin soft capsules in PVC/PVDC-aluminium blister, 40° C./75% RH
Description: as §1, with “introduced individually into a thermoformed cavity film made from PVC 250 μm+40 g/m^2 of PVDC and heat-sealed with aluminium foil (20 μm) and” for “introduced”
as §2, with “The blisters and containers containing the” for “The”, “40°” for “30°”, “75%” for “65%”, “present. The results are compiled in Tables 1 and 2.” for “present.”

[3] = Stability of multivitamin soft capsules in container with channel former and absorbent embedded in the inside walls, 40° C./75% RH
Description: as §1, with “introduced individually into a thermoformed cavity film made from PVC 250 μm+40 g/m^2 of PVDC and heat-sealed with aluminium foil (20 μm) and” for “introduced”
as §2, with “The blisters and containers containing the” for “The”, “40°” for “30°”, “75%” for “65%”, “present. The results are compiled in Tables 1 and 2.” for “present.”

[4] = Multivitamin soft capsule batch GD 06 0045, 6 months
[5] = Multivitamin soft capsule batch GD 06 0045, Start
[6] = Multivitamin soft capsule batch 9018401, 3 months
[7] = Multivitamin soft capsule batch 9018401, Start
[8] = Multivitamin soft capsule batch 9018802, 6 months
[9] = Multivitamin soft capsule batch 9018802, Start

Row | amount of active compound present [1, 4] [mg/capsule] | amount of active compound present, % of start [1, 4] [%] | amount of active compound present [1, 5] [mg/capsule] | amount of active compound present, % of start [1, 5] [%] | amount of active compound present [2, 6] [mg/capsule] | amount of active compound present, % of start [2, 6] [%] | amount of active compound present [2, 7] [mg/capsule] | amount of active compound present, % of start [2, 7] [%] | amount of active compound present [3, 8] [mg/capsule] | amount of active compound present, % of start [3, 8] [%] | amount of active compound present [3, 9] [mg/capsule] | amount of active compound present, % of start [3, 9] [%] | Compound
1 | 0.603 | 104 | 0.581 | 100 | 0.57 | 92 | 0.62 | 100 | 0.520 | 87 | 0.60 | 100 | Nc1nc2ncc(CNc3ccc(C(=O)N[C@@H](CCC(=O)O)C(=O)O)cc3)nc2c(=O)[nH]1 [Folic acid]
2 | 14.9 | 96 | 15.6 | 100 |  |  |  |  |  |  |  |  | CC(C)(CO)[C@@H](O)C(=O)NCCC(=O)[O-].CC(C)(CO)[C@@H](O)C(=O)NCCC(=O)[O-].[Ca+2] [Calcium panthotenate]
3 | 2.0 | 87 | 2.3 | 100 |  |  |  |  |  |  |  |  | CC1=C(/C=C/C(C)=C/C=C/C(C)=C/C=C/C=C(C)/C=C/C=C(C)/C=C/C2=C(C)CCCC2(C)C)C(C)(C)CCC1 [β-Carotene]
4 | 3.39 | 94 | 3.60 | 100 |  |  |  |  |  |  |  |  | Cc1ncc(CO)c(CO)c1O.Cl [Pyridoxine*HCL]
5 | 2.23 | 107 | 2.09 | 100 |  |  |  |  |  |  |  |  | Cc1cc2nc3c(=O)[nH]c(=O)nc-3n(C[C@H](O)[C@H](O)[C@H](O)CO)c2cc1C [Riboflavin]
6 | 20.1 | 98 | 20.6 | 100 |  |  |  |  |  |  |  |  | NC(=O)c1cccnc1 [Nicotinamide]
7 | 19.8 | 99 | 20.0 | 100 |  |  |  |  |  |  |  |  | CC(=O)Oc1c(C)c(C)c2c(c1C)CCC(C)(CCC[C@H](C)CCC[C@H](C)CCCC(C)C)O2 (some centres unmarked) [Tocopherol acetate]
8 |  |  |  |  | 9.7 | 72 | 13.5 | 100 | 12.8 | 96 | 13.3 | 100 | CC(C)(CO)[C@@H](O)C(=O)NCCCO [Dexpanthenol]
9 |  |  |  |  | 17.1 | 87 | 19.7 | 100 | 19.3 | 98 | 19.6 | 100 | Cc1ncc(C[n+]2csc(CCO)c2C)c(N)n1.Cl.[Cl-] [Thiamine*HCL]
10 | 0.0158 | 97 | 0.0163 | 100 | 0.171 | 86 | 0.199 | 100 | 0.173 | 82 | 0.21 | 100 | Cyanocobalamine
11 | 115.0 | 95 | 120.5 | 100 | 159 | 76 | 209 | 100 | 210 | 99 | 213 | 100 | O=C1O[C@H]([C@@H](O)CO)C(O)=C1O [Ascorbic acid]

Row | Compound | amount of active compound present [1, 4] [mg/capsule] | amount of active compound present, % of start [1, 4] [%] | amount of active compound present [1, 5] [mg/capsule] | amount of active compound present, % of start [1, 5] [%] | amount of active compound present [2, 6] [mg/capsule] | amount of active compound present, % of start [2, 6] [%] | amount of active compound present [2, 7] [mg/capsule] | amount of active compound present, % of start [2, 7] [%] | amount of active compound present [3, 8] [mg/capsule] | amount of active compound present, % of start [3, 8] [%] | amount of active compound present [3, 9] [mg/capsule] | amount of active compound present, % of start [3, 9] [%]
12 | O=C(O)CCCC[C@@H]1SC[C@@H]2NC(=O)N[C@@H]21 [Biotin] | 0.185 | 105 | 0.176 | 100 |  |  |  |  |  |  |  | 
